Results taken from US20240425464A1, “Substituted Monohydrazides as Potent Antifungal Agents” (University of Kentucky Research Foundation, priority 2023, published 2024).
Converted amounts (≈) assume the structure as drawn. Read-outs that look alike come from different tables or passages of the source.

Experiments:
[1] = tested on: C. albicans ATCC 10231 (strain A); assay: MIC determination by in vitro antifungal assay (CLSI broth dilution); assay type: cell-based, Candida albicans; settings: strain A = C. albicans ATCC 10231, no visible growth, 48 h at 35° C.
Experimental: (§1) 10 mg/mL stock solutions of compounds 1a-9j were prepared in dimethyl sulfoxide (DMSO) and were stored at −20° C. in the dark. The antifungal agent amphotericin B (AmB) was purchased from VWR (Radnor PA, USA). AmB was dissolved in DMSO at a final concentration of 5 mg/mL and was stored at −20° C., protected from light. Candida albicans American Type Culture Collection (ATCC) 10231 (strain A), C. albicans ATCC 64124 (B), and C. albicans ATCC MYA-2876 (C) were obtained from Utah State University. C. albicans ATCC 90819 (D), C. albicans ATCC MYA-2310 (E), C. albicans ATCC MYA-1237 (F), C. albicans ATCC MYA-1003 (G), Candida glabrata ATCC 2001 (H), Candida krusei ATCC 6258 (I), Candida parapsilosis ATCC 22019 (J), Cryptococcus neoformans ATCC MYA-895 (M), Aspergillus terreus ATCC MYA-3633 (N), and Aspergillus flavus ATCC MYA-3631 (0) were obtained from the American Type Culture Collection (ATCC; Manassas, VA, USA). Aspergillus nidulans ATCC 38163 (P) was obtained from University of Kentucky. Clinically derived Aspergillus fumigatus NRRL 163 (Q), A. fumigatus NRRL 5109 (R), and A. fumigatus NRRL 6113 (S) were obtained from Northern Regional Research Laboratory (NRRL). Candida auris 384 (K), C. auris 390 (L), and fungal strains 381-400 (including 10 C. auris (AR Bank #381-390), 3 Candida duobushaemulonii (AR Bank #391, AR Bank #392, and AR Bank #394), 2 Candida haemulonii (AR Bank #393 and AR Bank #395), 1 Kodameae ohmeri (AR Bank #396), 1 C. krusei (AR Bank #397), 1 Candida lusitaniae (AR Bank #398), and 2 Saccharomyces cerevisiae strains (AR Bank #399 and AR Bank #400)) were part of a larger fungal library from the AR Bank maintained by the Centers for Disease Control and Prevention (CDC; Atlanta, GA, USA). Filamentous fungi and yeasts were cultivated at 35° C. in RPMI 1640 medium (with L-glutamine, without sodium bicarbonate, Sigma-Aldrich, St. Louis, MO) buffered to a pH of 7.0 with 0.165 M morpholinepropanesulfonic acid (MOPS) buffer (Sigma-Aldrich). For cytotoxicity assays, HepG2 and the mouse macrophage cell line J774A.1 were obtained from University of Kentucky. The human embryonic kidney cell line, HEK-293, was bought from the ATCC. Mammalian cells were grown in Dulbecco's Modified Eagle's Medium (DMEM) (from VWR) with 10% fetal bovine serum (FBS) (from VWR) and 1% Pen/Strep (from ATCC). Cell lines were cultured at 37° C. with 5% CO2 and passaged by trypsinization with 0.05% trypsin: 0.53 mM EDTA (from Sigma-Aldrich).
(§2) The MIC values of compounds 1a-9j against yeast cells (strains A-P and 381-400) were determined in 96-well plates as described in the CLSI documents M27-A3 and M38-A2 with minor modifications.^2 A single colony of freshly prepared yeast cells was used to inoculate 5 mL of yeast extract peptone dextrose (YPD) broth prior to incubation overnight with shaking at 200 rpm at 35° C. From the actively growing yeast culture, 100 µL were then transferred to 900 μL of RPMI 1640 medium and re-adjusted to achieve OD600 of 0.12 (˜1×10^6 CFU/mL). The cell suspension was further diluted to achieve 1:100 in RPMI 1640 medium. 100 μL of cells were added to the wells of a 96-well microtiter plates that contained 100 µL of the compound solution to obtain concentrations of 0.06-31.3 μg/mL of compounds 1a-9j or AmB prior to incubation for 48 h at 35° C. […]

[2] = tested on: C. albicans ATCC 90819 (D); assay: MIC determination by in vitro antifungal assay; assay type: cell-based, Candida albicans
Experimental: as §1, §2

[3] = tested on: C. albicans ATCC MYA-1237 (F); assay: MIC determination by in vitro antifungal assay; assay type: cell-based, Candida albicans; settings: strain F = C. albicans ATCC MYA-1237(R)
Experimental: as §1, §2

[4] = tested on: C. albicans ATCC MYA-2876 (C); assay: MIC determination by in vitro antifungal assay; assay type: cell-based, Candida albicans; settings: strain C = C. albicans ATCC MYA-2876(S)
Experimental: as §1, §2

[5] = tested on: Candida glabrata ATCC 2001 (H); assay: MIC determination by in vitro antifungal assay; assay type: cell-based; settings: ATCC 2001 in text
Experimental: as §1, §2

[6] = tested on: Aspergillus flavus ATCC MYA-3631 (O); assay: MIC determination by in vitro antifungal assay; assay type: cell-based; settings: Aspergillus flavus; strain O = A. flavus ATCC MYA-3631; read-out: MIC
Experimental: as §1
(§3) The MIC values of compounds 1a-9j against yeast cells (strains A-P and 381-400) were determined in 96-well plates as described in the CLSI documents M27-A3 and M38-A2 with minor modifications.^2 A single colony of freshly prepared yeast cells was used to inoculate 5 mL of yeast extract peptone dextrose (YPD) broth prior to incubation overnight with shaking at 200 rpm at 35° C. From the actively growing yeast culture, 100 µL were then transferred to 900 μL of RPMI 1640 medium and re-adjusted to achieve OD600 of 0.12 (˜1×10^6 CFU/mL). The cell suspension was further diluted to achieve 1:100 in RPMI 1640 medium. 100 μL of cells were added to the wells of a 96-well microtiter plates that contained 100 µL of the compound solution to obtain concentrations of 0.06-31.3 μg/mL of compounds 1a-9j or AmB prior to incubation for 48 h at 35° C.
(§4) Finally, the activity of these monohydrazides was explored against […] non-Candida strains: Cryptococcus neoformans ATCC MYA-895 (M), Aspergillus terreus ATCC MYA-3633 (N), Aspergillus flavus ATCC MYA-3631 (O), Aspergillus nidulans ATCC 38163 (P), Aspergillus fumigatus NRRL 163 (Q), A. fumigatus NRRL 5109 (R), and A. fumigatus NRRL 6113 (S) (Tables 1A and 1B). The double dilution method was used with concentrations ranging from 0.06 to 31.3 j·tg mL^−1 for monohydrazides 1a-9j, and the commercially available positive antifungal control amphotericin B (AmB).

[7] = tested on: Aspergillus fumigatus NRRL 163 (Q); assay: MIC determination by in vitro antifungal assay; assay type: cell-based; settings: Aspergillus fumigatus, NRRL163; strain Q = A. fumigatus NRRL 163; read-out: MIC
Experimental: as §1, §3, §4

[8] = tested on: Aspergillus nidulans ATCC 38163 (P); assay: MIC determination by in vitro antifungal assay; assay type: cell-based
Experimental: as §1, §3, §4

[9] = tested on: Cryptococcus neoformans ATCC MYA-895 (M); assay: MIC determination by in vitro antifungal assay; assay type: cell-based; settings: strain M = C. neoformans ATCC MYA-895
Experimental: as §1, §3, §4

[10] = tested on: A. fumigatus NRRL 5109 (R); assay: MIC determination by in vitro antifungal assay; assay type: cell-based, Aspergillus fumigatus; settings: Aspergillus fumigatus, NRRL5109; strain R = A. fumigatus NRRL 5109; read-out: MIC
Experimental: as §1, §3, §4

[11] = tested on: A. fumigatus NRRL 6113 (S); assay: MIC determination by in vitro antifungal assay; assay type: cell-based, Aspergillus fumigatus; settings: Aspergillus fumigatus, NRRL6113; strain S = A. fumigatus NRRL 6113; read-out: MIC
Experimental: as §1, §3, §4

[12] = Candida albicans, read-out: MIC

MIC ([1]; Candida albicans, ATCC10231, 48 h, read-out: MIC): 1.95 µg/mL (≈ 5.94 µM)
MIC [1]: 3.9 μg/mL^−1
MIC ([2]; Candida albicans, ATCC90819, strain D = C. albicans ATCC 90819(R), read-out: MIC): 1.95 µg/mL (≈ 5.94 µM)
MIC ([2]; strain D = C. albicans ATCC 90819(R)): 3.9 μg/mL^−1
MIC [3, 12]: 0.98 µg/mL (≈ 2.99 µM)
MIC [3]: 1.95 μg/mL^−1
MIC [4, 12]: 0.49 µg/mL (≈ 1.49 µM)
MIC [4]: 0.98 μg/mL^−1
MIC ([5]; Nakaseomyces glabratus, ATCC 2001 / ATCC 2004, strain H = C. glabrata ATCC 2004 (footnote), read-out: MIC): 7.8 µg/mL (≈ 23.8 µM)
MIC ([5]; strain H = C. glabrata ATCC 2004 (footnote)): 15.6 μg/mL^−1
MIC [6]: > 31.3 µg/mL
MIC [7]: > 31.3 µg/mL
MIC ([8]; Aspergillus nidulans, ATCC38163, strain P = A. nidulans ATCC 38163, read-out: MIC): 3.9 µg/mL (≈ 11.9 µM)
MIC ([8]; strain P = A. nidulans ATCC 38163): 1.95 μg/mL^−1
MIC ([9]; Cryptococcus neoformans, read-out: MIC): 0.98 µg/mL (≈ 2.99 µM)
MIC [9]: 0.49 μg/mL^−1
MIC [10]: 31.3 µg/mL (≈ 95.4 µM)
MIC [11]: > 31.3 µg/mL
Structure (SMILES): O=C(NNc1ccc(F)cc1F)c1cccc(Br)n1 [Compound 6g]
